Measured values taken from patent EP1151753B1, “PREVENTIVE AND THERAPEUTIC AGENTS FOR ARTERIOSCLEROSIS” (CCI CORPORATION, priority 1999, dated 2000).

Tests used:
[1] = Biochemical test of blood and measurement of body weight, cholesterol-loaded rabbit model; assay type: in vivo, New Zealand White (NZW) type rabbits; details: cholesterol-loaded NZW rabbits
Description: Now, the pharmacogenic effect of the agent of this invention for preventing and curing arteriosclerosis will be described specifically below with reference to a pharmacological test using high cholesterol-loaded rabbits and the WHHL (Watanabe heritable hyperlipidemic) rabbits forming a model of the familial high-cholesterol blood disease. The data were wholly reported by the average ± standard error (SE) and the significant differences among separate groups were determined by the Student's t-test. The risk factor, p < 0.05, was rated as forming a significance of difference.
(§1) In the test, female and male New Zealand White (NZW) type rabbits (SPF: Kitayama Labels K.K.) which were seven weeks old at the time of arrival at the laboratory were subjected to quarantine and two weeks' domestication and visually inspected as to the general condition and, after the absence of abnormality was confirmed, put to use. The body weights at the time of starting administration (at the age of nine weeks) were in the range of 1.8 - 2.2 kg in the case of male rabbits and in the range of 1.6 - 2.0 kg in the case of female rabbits. Throughout the entire duration of the test, the animals were raised as accommodated one each in hanger cages of aluminum installed on a stainless steel rack inside a clean feeding chamber set at a temperature in the range of 20 - 26°, a relative humidity in the range of 40 - 70%, a number of ventilations in the range of 10 - 20 turns/hour, and an illumination time within the range of 12 hours (7.00 - 19:00). They were fed on a commercially available radioactively sterilized solid feed (a product containing 1% of cholesterol, made by Oriental Kobo K.K. and sold under the product code of "RC4") and they were left freely drinking the tap water delivered by an automatic water supplying device.
The dosage of TMG was set at 800 mg/head/day. The TMG was solved in reagent grade ethanol. The produced solution was sprayed on the 1% cholesterol-containing feed and the wet feed was left drying in the air. A mixed feed was prepared so as to contain 800 mg of TMG per 100 g of the feed. The mixed feed was given to the rabbits every morning at a rate of 100 g/day per head for 12 weeks for the sake of attaining oral consumption of the TMG. The feed for the control group was obtained by spraying ethanol alone on a feed containing 1% cholesterol and air-drying the wet feed. It was given to the rabbits of the control group at a rate of 100 g/day per heat for 12 weeks.
A control group and a TMG-administration group were formed; the control group of a total of six heads composed of three males and three females and the TMG-administration group of a total of eight heads composed of four males and four females. These animals were apportioned to the two groups randomly and nevertheless elaborately so as to avoid confusion of the children of one brood in either group to the fullest possible extent and equalize as much as permissible the average body weights and the average total cholesterol numbers in blood serum of the two groups with the body weights and the total cholesterol numbers found at the time of completion of the domestication.
About 6 ml of blood was taken from the heart or the auricular artery of a rabbit experiencing 12 hours' fast prior to the start of the administration, within 4 and 8 weeks of undergoing administration, and on the final day of administration (12th week). The blood was centrifuged to separate blood serum and the blood serum was analyzed for the items shown in Table 1 by the use of an automatic analyzer (made by Hitachi. Ltd. And sold under the product code of "736-20"). The body weight of each rabbit was measured at the rate of once a week throughout the entire duration of the administration.

[2] = tested on: cholesterol-loaded rabbits; assay: Evaluation of morbid alteration of aorta (Sudan dyeing), cholesterol-loaded rabbit model; assay type: in vivo, New Zealand White (NZW) type rabbits; details: cholesterol-loaded NZW rabbits
Excerpt: as §1
The dosage of TMG was set at 800 mg/head/day. The TMG was solved in reagent grade ethanol. […]

[3] = blood serum, TMG 800 mg/head/day in feed, 12th week of administration, average ± SE
[4] = TMG 800 mg/head/day for 12 weeks

Cc1c(C)c2c(c(C)c1O)CCC(C)(C[C@H]1O[C@H](CO)[C@@H](O)[C@H](O)[C@H]1O)O2 (stereo partly drawn) [TMG, 2-(α-D-glucopyranosyl)methyl-2,5,7,8-tetramethyl chroman-6-ol]
ALB [1, 3]: 2.3 ± 0.1 g/dL
ALP [1, 3]: 174 ± 15 mU/ml
ChE [1, 3]: 0.35 ± 0.06 U/ml
GOT [1, 3]: 19.7±2.2 mU/ml
GPT [1, 3]: 72.9 ± 9.1 mU/ml
LDH [1, 3]: 147 ± 31 mU/ml
PL [1, 3]: 851 ± 42 mg/dL
T-CHO [1, 3]: 2628 ± 148 mg/dL
TG [1, 3]: 250 ± 76 mg/dL
activity of lowering the blood serum lipids (T-CHO, TG, PL, LDL-CHO) [1, 4]: no activity
biochemical test of blood [1, 4]: no sign of abnormality
Body weight ([1]; TMG 800 mg/head/day in feed, 12th week of administration, average ± SE): 2.89 ± 0.11 kg
rise of the GOT, an index of the development of hepatopathy ([1]; TMG 800 mg/head/day, versus control group): significantly repressing the injury
Surface involvement (%) ([2]; area occupied by deposited lipid in whole area of aorta, TMG 800 mg/head/day in feed, 12th week, control 79.7 ± 3.2, p < 0.01): 50.2 ± 5.7 %
occurrence of the atherosclerosis [2, 4]: significantly repressing
